Values joined by “and” are separate entries in the source; they are usually repeats but may differ in a detail not shown here. Equal entries are not always repeated. “Also recorded” adds a separate entry of the source. Where two headings read alike, the source gives them in different places.
Key:
RbmC2 β-prism domain [1] = target: T1, RbmC2 β-prism domain (Vibrio cholerae, UniProt Q9KTH2); experiment: biochemical; format: binding; conditions: RbmC2 β-prism affinity
RbmC2 β-prism domain [2] = target: T1, RbmC2 β-prism domain; experiment: biochemical; format: binding
[3] = target: T2, VCC β-prism lectin domain (Vibrio cholerae serotype O1, UniProt P09545); experiment: biochemical; format: binding
RbmC1 β-prism domain = RbmC1 β-prism domain (Vibrio cholerae, UniProt Q9KTH2); experiment: biochemical; format: binding
[4] = target: T2, VCC β-prism lectin domain; experiment: biochemical; format: binding; remark: listed apart in the source
[5] = target: T2, VCC β-prism lectin domain; conditions: read-out: VCC β-prism affinity; cited from earlier work
[6] = target: RbmC2-GFPUV fusion (Vibrio cholerae El Tor strain N16961); experiment: ITC
[7] = target: RbmC1-GFPUV fusion (Vibrio cholerae El Tor strain N16961); experiment: ITC

CC(=O)N[C@H]1[C@H](O[C@@H]2[C@@H](OC[C@H]3OC(O)[C@@H](O)[C@@H](O[C@H]4O[C@H](CO)[C@@H](O)[C@H](O)[C@@H]4O[C@@H]4O[C@H](CO)[C@@H](O)[C@H](O)[C@H]4NC(C)=O)[C@@H]3O)O[C@H](CO)[C@@H](O)[C@@H]2O)O[C@H](CO)[C@@H](O)[C@@H]1O (some centres unmarked) [Pentasaccharide, N-linked core pentasaccharide]
Kd (RbmC2 β-prism domain [1]): 0.0011 µM and 0.0015 µM

CC(=O)N[C@H]1C(O)O[C@H](CO)[C@@H](O[C@@H]2O[C@H](CO)[C@H](O)[C@H](O)[C@H]2O)[C@@H]1O (stereo partly drawn) [LacNAc, N-acetyl-D-lactosamine]
RbmC2 β-prism binding (RbmC2 β-prism domain [2]): Did not bind; also recorded: unable to observe binding | VCC β-prism binding [3]: Did not bind; also recorded: unable to detect binding | RbmC1 β-prism binding (RbmC1 β-prism domain): Did not bind; also recorded: unable to observe binding

OC[C@H]1O[C@H](OC[C@H]2OC(O)[C@@H](O)[C@@H](O[C@H]3O[C@H](CO)[C@@H](O)[C@H](O)[C@@H]3O)[C@@H]2O)[C@@H](O)[C@@H](O)[C@@H]1O (stereo partly drawn) [Mannotriose, 1,3-α-1,6-α-D-mannotriose]
Kd (RbmC2 β-prism domain [2]; RbmC2 β-prism affinity): 4.1 µM | Kd [3]: 229 µM | Kd (RbmC1 β-prism domain; RbmC1 β-prism affinity): 0.6 µM

CC(=O)N[C@H]1[C@H](O[C@H]2[C@H](O)[C@@H](NC(C)=O)C(O)O[C@@H]2CO)O[C@H](CO)[C@@H](O[C@@H]2O[C@H](CO[C@H]3O[C@H](CO)[C@@H](O)[C@H](O)[C@@H]3O[C@@H]3O[C@H](CO)[C@@H](O)[C@H](O)[C@H]3NC(C)=O)[C@@H](O)[C@H](O[C@H]3O[C@H](CO)[C@@H](O)[C@H](O)[C@@H]3O[C@@H]3O[C@H](CO)[C@@H](O)[C@H](O)[C@H]3NC(C)=O)[C@@H]2O)[C@@H]1O (some centres unmarked) [NGA2, GlcNAcβ1-2Manα1-6(GlcNAcβ1-2Manα1–3)Manβ1-4GlcNAcβ1-4GlcNAc]
Kd (RbmC2 β-prism domain [1]): 0.0015 ± 0.0005 µM | Kd [4]: 0.2 µM

CC(=O)N[C@H]1[C@H](O[C@@H]2C(O)O[C@H](CO)[C@@H](O)[C@@H]2O)O[C@H](CO)[C@@H](O)[C@@H]1O (stereo partly drawn) [GlcNAc-Man, N-acetylglucosaminyl-β-1,2-mannose]
Kd (RbmC2 β-prism domain [2]; RbmC2 β-prism affinity): 159 µM

Asialofetuin
Kd (RbmC2 β-prism domain [2]; read-out: RbmC2 β-prism affinity (apparent)): 0.0184 µM | Kd (RbmC1 β-prism domain; read-out: RbmC1 β-prism affinity (apparent)): 0.0159 µM

CO[C@H]1O[C@H](CO)[C@@H](O)[C@H](O)[C@@H]1O [Me-α-mannose, methyl α-D-mannopyranoside]
Kd (RbmC2 β-prism domain [2]; RbmC2 β-prism affinity): 179 µM and 503 µM | Kd (RbmC1 β-prism domain; RbmC1 β-prism affinity): 503 µM and 179 µM | Kd [5]: 2700 µM

B1: bovine asialofetuin (natural protein)
chain: IPLDPVAGYKEPACDDPDTEQAALAAVDYINKHLPRGYKHTLNQIDSVKVWPRRPTGEVYDIEIDTLETTCHVLDPTPLANCSVRQQTQHAVEGDCDIHVLKQDGQFSVLFTKCDSSPDSAEDVRKLCPDCPLLAPLNDSRVVHAVEVALATFNAESNGSYLQLVEISRAQFVPLPVSVSVEFAVAATDCIAKEVVDPTKCNLLAEKQYGFCKGSVIQKALGGEDVRVTCTLFQTQPVIPQPQPDGAEAEAPSAVPDAAGPTPSAAGPPVASVVVGPSVVAVPLPLHRAHYDLRHTFSGVASVESSSGEAFHVGKTPIVGQPSIPGGPVRLCPGRIRYFKI
modifications: three glycosylation sites occupied by heterogeneous mixtures of bi- and tri-antennary glycans (asialo form)
Kd [6]: 0.0184 µM | Kd [7]: 0.0159 µM

Reference: publication PMC5825169 (PLoS Pathogens, 2018)
